Results as given in paper PMC12321279, “Novel 4,5‐Dihydrothiazole‐Phenylpiperazine Derivatives: Synthesis, Docking Studies and Pharmacological Evaluation as Serotonergic Agents” (Chemmedchem, 2025).
Read-outs that look alike come from different tables or passages of the source.

Assays:
5‐HT1A receptor = target: T1, 5‐HT1A receptor (Rattus norvegicus, UniProt P19327); test: 5‐HT1A competition binding assay ([3H]8‐OH‐DPAT, hippocampal membranes); conditions: 1 nM [3H]8‐OH‐DPAT
T1 construct: 80 μg of hippocampal membrane suspension (the 5‐HT1A assay); from tissue; host or cells: rat (Sprague-Dawley) hippocampus membranes
T1 sequence (P19327 1-422): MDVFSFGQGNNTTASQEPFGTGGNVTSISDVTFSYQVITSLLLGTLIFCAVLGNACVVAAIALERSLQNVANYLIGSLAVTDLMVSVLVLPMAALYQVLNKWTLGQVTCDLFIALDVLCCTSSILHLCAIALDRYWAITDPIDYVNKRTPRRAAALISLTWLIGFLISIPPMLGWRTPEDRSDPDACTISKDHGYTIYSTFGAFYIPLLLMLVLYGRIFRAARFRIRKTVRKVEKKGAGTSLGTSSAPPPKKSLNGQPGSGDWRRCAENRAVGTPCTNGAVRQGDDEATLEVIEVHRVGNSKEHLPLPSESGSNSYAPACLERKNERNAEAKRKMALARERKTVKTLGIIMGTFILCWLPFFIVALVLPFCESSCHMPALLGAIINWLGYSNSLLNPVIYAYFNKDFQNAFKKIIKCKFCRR
Experimental: (§1) Sprague‐Dawley rats were sacrificed by isoflurane overdose. Brains were rapidly removed and placed on ice. Hippocampi (for the 5‐HT1A assay) and frontal cortices (for the 5‐HT2A and 5‐HT2C assays) were dissected on a Petri dish. The tissue from 10 rats was homogenized in 30 vol. homogenization buffer (50 mM Tris–HCl, […], 1 mM EDTA, 1 mM dithiothreitol) with a handheld Teflon‐glass homogenizer. The homogenate was centrifuged at 48,000 × g at 4 °C for 15 min. The pellet was suspended and homogenized in the homogenization buffer and incubated for 10 min. at 36 °C. The centrifugation and suspension steps were repeated twice. The final pellet was homogenized in 5 vol. 50 mM Tris–HCl, pH = 7.4 buffer and stored at −80 °C for no longer than 6 months. […] For the 5‐HT2C assay, compounds were incubated in duplicate with 5 nM [^3H]mesulergine (specific activity: 80.2 Ci mmol^−1, Revvity, MA, USA) for 60 min. at 36 °C in a 50 mM Tris‐HCl (pH 7.4) buffer, supplemented with 5 mM MgCl2, 140 mM NaCl, 1 mM DTT, 1 mM CaCl2, 10 μM pargyline and 160μg of the frontal cortex membrane suspension. Non‐specific binding was determined with 10μM serotonin. The final DMSO concentration in the assay was 5%. After incubation, the reaction mixture was deposited onto Unifilter GF/C plates (Revvity, MA, USA) presoaked in 0.4% PEI (or 0.4% PEI and 0.5% Triton X‐100 for the 5‐HT2C assay) for 1 h with the FilterMate‐96 Harvester (Revvity, MA, USA). Then, each well was washed with 2 mL of 50 mM Tris–HCl (pH 7.4) buffer to separate bound ligands from free and the plates were left to dry overnight. Then, 35μl of Microscint‐20 scintillation fluid (Revvity, MA, USA) was added to each filter well and left to equilibrate for 2h. Filter‐bound radioactivity was counted in a MicroBeta2 LumiJet scintillation counter (Revvity, MA, USA). Binding curves were fitted with one site non‐linear regression. Binding affinity (pKi and Ki) for each compound was calculated from the […] values with the Cheng‐Prusoff equation from two separate experiments.

5‐HT2C receptor = target: T2, 5‐HT2C receptor (Rattus norvegicus, UniProt P08909); test: 5‐HT2C competition binding assay ([3H]mesulergine, frontal cortex membranes); conditions: 5 nM [3H]mesulergine
T2 construct: 10 μM pargyline and 160μg of the frontal cortex membrane suspension; from tissue; host or cells: rat (Sprague-Dawley) frontal cortex membranes
T2 sequence (P08909 33-460): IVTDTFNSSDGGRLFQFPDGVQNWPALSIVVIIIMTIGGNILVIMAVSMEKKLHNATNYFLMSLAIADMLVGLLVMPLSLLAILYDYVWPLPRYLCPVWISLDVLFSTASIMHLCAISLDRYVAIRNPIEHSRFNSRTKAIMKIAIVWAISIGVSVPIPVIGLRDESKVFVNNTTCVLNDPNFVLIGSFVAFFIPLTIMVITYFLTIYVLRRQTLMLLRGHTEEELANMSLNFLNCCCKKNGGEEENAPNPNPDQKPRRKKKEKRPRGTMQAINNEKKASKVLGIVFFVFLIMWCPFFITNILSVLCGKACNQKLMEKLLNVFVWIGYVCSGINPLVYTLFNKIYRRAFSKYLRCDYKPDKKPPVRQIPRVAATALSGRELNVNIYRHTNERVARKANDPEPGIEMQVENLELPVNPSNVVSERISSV
Experimental: as §1

[1] = 95% CI in brackets, read-out: 5‐HT1A Ki (95% CI)
[2] = 95% CI in brackets, read-out: 5‐HT2C Ki (95% CI)
[3] = read-out: 5‐HT2C pKi (converted)
[4] = read-out: 5‐HT1A pKi (converted)

Row | SMILES | Ki (5‐HT1A receptor; [1]) | Ki (5‐HT2C receptor; [2]) | Ki (5‐HT2C receptor; [3]) | Ki (5‐HT1A receptor; [4])
1 | O=C(NCCCN1CCN(c2ccccc2C2=NCCS2)CC1)c1ccccn1 [FG‐1, N‐(3‐(4‐(2‐(4,5‐dihydrothiazol‐2‐yl) phenyl) piperazin‐1‐yl) propyl) picolinamide] | 2.35 µM | 6.86 µM | – | –
2 | O=C(NCCCN1CCN(c2cccc(C3=NCCS3)c2)CC1)c1ccccn1 [FG‐2, N‐(3‐(4‐(3‐(4,5‐dihydrothiazol‐2‐yl) phenyl) piperazin‐1‐yl) propyl) picolinamide] | 1.86 µM | 0.816 µM | 0.832 µM | –
3 | O=C(NCCCN1CCN(c2ccccc2C2=NCCS2)CC1)c1ccncc1 [FG‐4, N‐(3‐(4‐(2‐(4,5‐dihydrothiazol‐2‐yl) phenyl) piperazin‐1‐yl) propyl) isonicotinamide] | 1.54 µM | 7.28 µM | – | –
4 | O=C(NCCCN1CCN(c2cccc(C3=NCCS3)c2)CC1)c1ccncc1 [FG‐5, N‐(3‐(4‐(3‐(4,5‐dihydrothiazol‐2‐yl) phenyl) piperazin‐1‐yl) propyl) isonicotinamide] | 1.1 µM | 12.5 µM | – | –
5 | O=C(NCCCN1CCN(c2ccc(C3=NCCS3)cc2)CC1)c1ccncc1 [FG‐6, N‐(3‐(4‐(4‐(4,5‐dihydrothiazol‐2‐yl) phenyl) piperazin‐1‐yl) propyl) isonicotinamide] | – | 2.21 µM | 2.24 µM | 26.3 µM
6 | O=C1C2C3C=CC(C3)C2C(=O)N1OCCCN1CCN(c2ccccc2C2=NCCS2)CC1 (centres unmarked) [FG‐7, 2‐(3‐(4‐(2‐(4,5‐dihydrothiazol‐2‐yl) phenyl) piperazin‐1‐yl) propoxy)‐3a,4,7,7a‐tetrahydro‐1 H‐4,7‐methanoisoindole‐1,3(2 H)‐dione] | 0.054 µM | 80.8 µM | – | –
7 | O=C1C2C3C=CC(C3)C2C(=O)N1OCCCN1CCN(c2cccc(C3=NCCS3)c2)CC1 (centres unmarked) [FG‐8, 2‐(3‐(4‐(3‐(4,5‐dihydrothiazol‐2‐yl) phenyl) piperazin‐1‐yl) propoxy)‐3a,4,7,7a‐tetrahydro‐1H‐4,7‐methanoisoindole‐1,3(2H)‐dione] | 0.71 µM | 0.046 µM | 0.0468 µM | 0.724 µM
8 | O=C(NCCCN1CCN(c2ccc(C3=NCCS3)cc2)CC1)C1CC2C=CC1C2 (stereo not drawn) [FG‐18, Endo‐ N‐(3‐(4‐(4‐(4,5‐dihydrothiazol‐2‐yl)phenyl)piperazin‐1‐yl)propyl) bicyclo[2.2.1]hept‐5‐ene‐2‐carboxamide] | – | 0.017 µM | – | 20 µM
